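Grown in 96-well plates, cells were treated for 48 hours with each compound at five concentrations. Insufficient inhibition: endpoint recorded as highest concentration tested. Definition used: TGI = concentration required for complete inhibition of growth.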
Assays:
Assay in all cases: growth of human tumour cells (NCI), 48 h
[1] = test system: 786-0 renal
[2] = test system: A498 renal
[3] = test system: A549 NSCLC
[4] = test system: ACHN renal
[5] = test system: BT-549 breast
[6] = test system: CAKI-1 renal
[7] = test system: COLO 205 colon
[8] = test system: DU-145 prostate
[9] = test system: EKVX NSCLC
[10] = test system: HCC-2998 colon
[11] = test system: HCT-15 colon
[12] = test system: HOP-92 NSCLC
[13] = test system: HS 578T breast
[14] = test system: HT29 colon
[15] = test system: IGROV1 ovarian
[16] = test system: K-562 leukemia
[17] = test system: KM12 colon
[18] = test system: LOX IMVI melanoma
[19] = test system: M14 melanoma
[20] = test system: MALME-3M melanoma
[21] = test system: MDA-MB-231 breast
[22] = test system: MDA-MB-435
[23] = test system: MDA-N
[24] = test system: MOLT-4 leukemia
[25] = test system: NCI-H226 lung
[26] = test system: NCI-H23 lung
[27] = test system: NCI-H460 lung
[28] = test system: NCI-H522 lung
[29] = test system: NCI/ADR-RES ovarian
[30] = test system: OVCAR-3 ovarian
[31] = test system: OVCAR-4 ovarian
[32] = test system: OVCAR-5 ovarian
[33] = test system: OVCAR-8 ovarian
[34] = test system: PC-3 prostate
[35] = test system: RPMI-8226 leukemia
[36] = test system: RXF 393 renal
[37] = test system: SF-268 CNS
[38] = test system: SF-295 CNS
[39] = test system: SF-539 CNS
[40] = test system: SK-MEL-2 melanoma
[41] = test system: SK-MEL-28 melanoma
[42] = test system: SK-MEL-5 melanoma
[43] = test system: SN12C renal
[44] = test system: SNB-19 CNS
[45] = test system: SNB-75 CNS
[46] = test system: SR leukemia
[47] = test system: SW-620 colon
[48] = test system: T-47D breast
[49] = test system: TK-10 renal
[50] = test system: U251 CNS
[51] = test system: UACC-257 melanoma
[52] = test system: UACC-62 melanoma
[53] = test system: UO-31 renal
[54] = test system: HCT-116 colon
[55] = test system: HL-60(TB) leukemia
[56] = test system: HOP-62 NSCLC
[57] = test system: MCF7 breast
[58] = test system: SK-OV-3 ovarian
[59] = test system: CCRF-CEM leukemia

`C/C(=N\NC(=S)N1CCCCC1)c1cccc(C)n1` gave a TGI [1] of 1.19 µM, a TGI [2] of 0.607 µM and a TGI [3] of 10.6 µM. It also gave a TGI [4] of 2.67 µM, a TGI [5] of 5.5 µM and a TGI [6] of 12.4 µM. For the same compound, the TGI [7] was 13.7 µM, the TGI [8] was 2.22 µM and the TGI [9] was 31.2 µM. For the same compound, the TGI [10] was 21.8 µM, the TGI [11] was 21.6 µM and the TGI [12] was 11.3 µM. For the same compound, the TGI [13] was over 100 µM, the TGI [14] was 16.2 µM and the TGI [15] was 12.8 µM. The TGI [16] was over 73.8 µM, the TGI [17] was 17.5 µM and the TGI [18] was 11.3 µM. For the same compound, the TGI [19] was 0.394 µM, the TGI [20] was 2.13 µM and the TGI [21] was 16.5 µM. The TGI [22] was 16.8 µM, the TGI [23] was 20.3 µM and the TGI [24] was over 100 µM. For the same compound, the TGI [25] was 0.4 µM, the TGI [26] was 10.7 µM and the TGI [27] was 0.334 µM. The TGI [28] was 10.6 µM, the TGI [29] was 0.258 µM and the TGI [30] was 12.1 µM. For the same compound, the TGI [31] was 51.6 µM, the TGI [32] was 21.1 µM and the TGI [33] was 2.1 µM. The TGI [34] was 19.7 µM, the TGI [35] was over 100 µM and the TGI [36] was 14.4 µM. It also gave a TGI [37] of 4.23 µM, a TGI [38] of over 33.4 µM and a TGI [39] of 0.413 µM. The TGI [40] was 22.4 µM, the TGI [41] was 36.9 µM and the TGI [42] was 0.449 µM. The TGI [43] was 12.1 µM, the TGI [44] was over 36 µM and the TGI [45] was 6.19 µM. The TGI [46] was over 100 µM, the TGI [47] was 18.3 µM and the TGI [48] was 16.9 µM. The TGI [49] was 21.3 µM, the TGI [50] was 11.5 µM and the TGI [51] was 12.1 µM. The TGI [52] was 0.352 µM and the TGI [53] was 1.53 µM.

With `CC(C)=CCC[C@@H](C)C1=C(Nc2ccccc2Cl)C(O)=C(C)C(=O)C1=O` the TGI [1] was over 39.1 µM, the TGI [2] was 27.4 µM and the TGI [3] was 15.7 µM. For the same compound, the TGI [4] was 11.1 µM, the TGI [5] was 36.3 µM and the TGI [6] was 16 µM. It also gave a TGI [7] of 9.8 µM, a TGI [8] of 29.3 µM and a TGI [9] of 29.7 µM. The TGI [10] was 31 µM, the TGI [54] was over 43.7 µM and the TGI [11] was 36 µM. The TGI [55] was 2.94 µM, the TGI [56] was 22.7 µM and the TGI [12] was 29.3 µM. It also gave a TGI [13] of 13.1 µM, a TGI [14] of 13.6 µM and a TGI [15] of over 39.1 µM. The TGI [16] was over 64.1 µM, the TGI [17] was 17.7 µM and the TGI [18] was 98.4 µM. For the same compound, the TGI [19] was 33.5 µM, the TGI [20] was 18.7 µM and the TGI [57] was over 100 µM. The TGI [21] was over 100 µM, the TGI [22] was 36.1 µM and the TGI [23] was 27 µM. The TGI [24] was 25.1 µM, the TGI [25] was 25.3 µM and the TGI [26] was 15.9 µM. For the same compound, the TGI [27] was over 100 µM, the TGI [28] was 12.2 µM and the TGI [29] was 27.1 µM. The TGI [30] was 16.5 µM, the TGI [31] was 43.3 µM and the TGI [32] was over 52 µM. It also gave a TGI [33] of 9.09 µM, a TGI [34] of over 100 µM and a TGI [35] of over 28.7 µM. For the same compound, the TGI [36] was 32.7 µM, the TGI [37] was 20.2 µM and the TGI [38] was 14 µM. It also gave a TGI [39] of 19.8 µM, a TGI [40] of 19.2 µM and a TGI [41] of 33.5 µM. The TGI [42] was 10.1 µM, the TGI [58] was 33.5 µM and the TGI [43] was 25.2 µM. It also gave a TGI [44] of 26.8 µM, a TGI [45] of 22.3 µM and a TGI [46] of over 57.6 µM. The TGI [47] was over 56.4 µM, the TGI [48] was 34.1 µM and the TGI [49] was over 100 µM. For the same compound, the TGI [50] was 38 µM, the TGI [51] was 27.7 µM and the TGI [52] was 18 µM. It also gave a TGI [53] of 17.9 µM.

For `Cc1ccc(S(=O)(=O)NNC(=O)c2cc(C)ccc2NC(=O)C23CC4CC(CC(C4)C2)C3)cc1`, the TGI [1] was 57.3 µM, the TGI [3] was over 100 µM and the TGI [4] was 44.1 µM. The TGI [5] was over 100 µM, the TGI [6] was over 100 µM and the TGI [59] was over 100 µM. For the same compound, the TGI [7] was over 100 µM, the TGI [8] was over 100 µM and the TGI [9] was over 100 µM. The TGI [10] was over 100 µM, the TGI [54] was over 100 µM and the TGI [11] was 66.8 µM. It also gave a TGI [55] of over 100 µM, a TGI [56] of over 100 µM and a TGI [12] of 91.5 µM. For the same compound, the TGI [13] was over 100 µM, the TGI [14] was over 100 µM and the TGI [15] was 30.6 µM. It also gave a TGI [16] of over 100 µM, a TGI [17] of over 100 µM and a TGI [18] of over 100 µM. It also gave a TGI [19] of over 100 µM, a TGI [20] of 80.4 µM and a TGI [57] of over 100 µM. It also gave a TGI [21] of over 100 µM, a TGI [22] of over 100 µM and a TGI [23] of over 100 µM. The TGI [24] was over 100 µM, the TGI [25] was over 100 µM and the TGI [26] was over 100 µM. It also gave a TGI [27] of over 100 µM, a TGI [28] of 76.3 µM and a TGI [29] of over 100 µM. For the same compound, the TGI [30] was over 100 µM, the TGI [31] was 78.5 µM and the TGI [32] was over 100 µM. The TGI [33] was over 100 µM, the TGI [34] was over 100 µM and the TGI [35] was over 100 µM. For the same compound, the TGI [36] was 78 µM, the TGI [37] was over 100 µM and the TGI [38] was over 100 µM. It also gave a TGI [39] of over 100 µM, a TGI [42] of over 100 µM and a TGI [58] of 68.5 µM. For the same compound, the TGI [43] was over 100 µM, the TGI [44] was 57.2 µM and the TGI [46] was over 100 µM. It also gave a TGI [47] of over 100 µM, a TGI [48] of over 100 µM and a TGI [49] of over 100 µM. It also gave a TGI [50] of over 100 µM, a TGI [51] of over 100 µM and a TGI [52] of over 100 µM. It also gave a TGI [53] of 44.9 µM.

For `COc1nc(N(C)C)nc2c1n(C)c[n+]2C`, the TGI [1] was over 100 µM, the TGI [2] was over 100 µM and the TGI [3] was over 100 µM. It also gave a TGI [4] of over 100 µM, a TGI [5] of over 100 µM and a TGI [6] of over 100 µM. For the same compound, the TGI [59] was over 100 µM, the TGI [7] was over 100 µM and the TGI [8] was over 100 µM. The TGI [9] was over 100 µM, the TGI [54] was over 100 µM and the TGI [11] was over 100 µM. It also gave a TGI [55] of over 100 µM, a TGI [56] of over 100 µM and a TGI [12] of over 100 µM. The TGI [13] was over 100 µM, the TGI [14] was over 100 µM and the TGI [15] was over 100 µM. The TGI [16] was over 100 µM, the TGI [17] was over 100 µM and the TGI [18] was over 100 µM. It also gave a TGI [19] of over 100 µM, a TGI [20] of over 100 µM and a TGI [21] of over 100 µM. The TGI [22] was over 100 µM, the TGI [23] was over 100 µM and the TGI [24] was over 100 µM. For the same compound, the TGI [25] was over 100 µM, the TGI [26] was over 100 µM and the TGI [27] was over 100 µM. For the same compound, the TGI [28] was over 100 µM, the TGI [29] was over 100 µM and the TGI [30] was over 100 µM. The TGI [32] was over 100 µM, the TGI [33] was over 100 µM and the TGI [34] was over 100 µM. It also gave a TGI [35] of over 100 µM, a TGI [36] of over 100 µM and a TGI [37] of over 100 µM. The TGI [38] was over 100 µM, the TGI [39] was over 100 µM and the TGI [40] was over 100 µM. The TGI [41] was over 100 µM, the TGI [42] was over 100 µM and the TGI [58] was over 100 µM. The TGI [43] was over 100 µM, the TGI [44] was over 100 µM and the TGI [45] was over 100 µM. It also gave a TGI [47] of over 100 µM, a TGI [48] of over 100 µM and a TGI [49] of over 100 µM. The TGI [50] was over 100 µM, the TGI [51] was over 100 µM and the TGI [52] was over 100 µM. The TGI [53] was over 100 µM.

From PubChem BioAssay (NCI)
